The experiment addresses wild-type human cardiac sodium channel, hNav1.5 (late sodium current) in HEK293 cells (Homo sapiens, UniProt Q14524). In words: Late INa screening assay (automated whole-cell patch clamp, PatchXpress). Type of experiment: cell-based. To be noted: late INa generated with 10 μM Tefluthrin (or 50 nM ATX II), HEK293 hNav1.5; for inhibition at 1 µM: HEK293, compound at 1 μM, read-out: Late INa 1 μM (percent block of late INa). As to the method:
The late sodium current (Late INa) and peak sodium current (Peak INa) assays are performed on an automated electrophysiology platform, PatchXpress 7000A (MDS Analytical Technologies, Sunnyvale, Calif.), which uses the whole cell patch clamp technique to measure currents through the cell membrane of up to 16 cells at a time. The assay uses an HEK293 (human embryonic kidney) cell line heterologously expressing the wild-type human cardiac sodium channel, hNav1.5, purchased from Millipore (Billerica, Mass.). No beta subunits were coexpressed with the Na channel alpha subunit. Cells are maintained with standard tissue culture procedures and stable channel expression is maintained with 400 μg/ml Geneticin in the culture medium. Cells isolated for use on PatchXpress are incubated for 5 minutes in Versene 1× and then for 2 minutes in 0.0125% Trypsin-EDTA (both at 37° C.) to ensure that 80-90% of the cells are single and not part of a cell cluster. Experiments are carried out at 24-27° C.
For both the Late INa and Peak INa assays, series resistance compensation is set to 50% and whole-cell compensation is performed automatically. Currents are low-pass filtered at 10 kHz and digitized at 31.25 kHz. Currents through open sodium channels are automatically recorded and stored in the DataXpress2 database (MDS Analytical Technologies, Sunnyvale, Calif.). Analysis is performed using DataXpress2 analysis software and data are compiled in Excel.
Compound stocks are routinely made in glass vials to 10 mM in dimethyl sulfoxide (DMSO). In some cases, when compounds are not soluble in DMSO, they are made in 100% ethanol. Stocks are sonicated as necessary. The extracellular solution for screening Late INa is composed of: 140 mM NaCl, 4 mM KCl, 1.8 mM CaCl2, 0.75 mM MgCl2, and 5 mM HEPES with pH adjusted to 7.4 using NaOH. The extracellular solution for screening Peak INa is composed of: 20 mM NaCl, 120 mM N-methyl-D glucamine, 4 mM KCl, 1.8 mM CaCl2, 0.75 mM MgCl2, and 5 mM HEPES with pH adjusted to 7.4 using HCl. The intracellular solution used to perfuse the inside of the cells for both the Late INa and Peak INa assays contains: 120 mM CsF, 20 mM CsCl, 5 mM EGTA, 5 mM HEPES and pH adjusted to 7.4 with CsOH. Compounds are diluted in extracellular solution to 10 μM in glass vials and then transferred to glass well plates before robotic addition to the cells. The 0Na extracellular solution used at the end of each experiment for the Late INa and Peak INa assays to measure baseline current contains: 140 mM N-methyl-D-glucamine; 4 mM KCl; 1.8 mM CaCl2; 0.75 mM MgCl2; 5 mM HEPES and pH was adjusted to 7.4 with HCl.
For the Late INa assay, sodium channels are activated every 10 seconds (0.1 Hz) by depolarizing the cell membrane to −20 mV for 250 milliseconds (ms) from a holding potential of −120 mV. In response to a −20 mV voltage step, typical Nav1.5 sodium currents activate rapidly to a peak negative current and then inactivate nearly completely within 3-4 ms.
All compounds are tested to determine their activity in blocking the late sodium current. Late INa current is generated by adding 10 μM Tefluthrin (pyrethroid) to the extracellular solution while recording Na currents. For some experiments, 50 nM ATX II (sea anemone toxin), another late INa activator, was used to generate the late component. Both activators generate late components that are large enough that block of the late component by compounds can be measured easily. For the purposes of the screening, late INa is defined as the mean current between 225 ms and 250 ms after stepping to −20 mV to activate Na channels. After establishing the whole cell recording configuration, late INa activators are added to each well 4 times over a 16-17 minute period so that the late component of the Na current reaches a stable value. Compounds are then added (typically at 10 μM), in the presence of late INa activator, with 3 additions over the course of 7 or 8 minutes. […]

The structures appear in SMILES notation.

The values below come from patent US9079901B2, “Fused heterocyclic compounds as ion channel modulators” (Gilead Sciences, Inc., priority 2010, dated 2015).

Sequence of wild-type human cardiac sodium channel, hNav1.5 (late sodium current) in HEK293 cells (Q14524 whole entry): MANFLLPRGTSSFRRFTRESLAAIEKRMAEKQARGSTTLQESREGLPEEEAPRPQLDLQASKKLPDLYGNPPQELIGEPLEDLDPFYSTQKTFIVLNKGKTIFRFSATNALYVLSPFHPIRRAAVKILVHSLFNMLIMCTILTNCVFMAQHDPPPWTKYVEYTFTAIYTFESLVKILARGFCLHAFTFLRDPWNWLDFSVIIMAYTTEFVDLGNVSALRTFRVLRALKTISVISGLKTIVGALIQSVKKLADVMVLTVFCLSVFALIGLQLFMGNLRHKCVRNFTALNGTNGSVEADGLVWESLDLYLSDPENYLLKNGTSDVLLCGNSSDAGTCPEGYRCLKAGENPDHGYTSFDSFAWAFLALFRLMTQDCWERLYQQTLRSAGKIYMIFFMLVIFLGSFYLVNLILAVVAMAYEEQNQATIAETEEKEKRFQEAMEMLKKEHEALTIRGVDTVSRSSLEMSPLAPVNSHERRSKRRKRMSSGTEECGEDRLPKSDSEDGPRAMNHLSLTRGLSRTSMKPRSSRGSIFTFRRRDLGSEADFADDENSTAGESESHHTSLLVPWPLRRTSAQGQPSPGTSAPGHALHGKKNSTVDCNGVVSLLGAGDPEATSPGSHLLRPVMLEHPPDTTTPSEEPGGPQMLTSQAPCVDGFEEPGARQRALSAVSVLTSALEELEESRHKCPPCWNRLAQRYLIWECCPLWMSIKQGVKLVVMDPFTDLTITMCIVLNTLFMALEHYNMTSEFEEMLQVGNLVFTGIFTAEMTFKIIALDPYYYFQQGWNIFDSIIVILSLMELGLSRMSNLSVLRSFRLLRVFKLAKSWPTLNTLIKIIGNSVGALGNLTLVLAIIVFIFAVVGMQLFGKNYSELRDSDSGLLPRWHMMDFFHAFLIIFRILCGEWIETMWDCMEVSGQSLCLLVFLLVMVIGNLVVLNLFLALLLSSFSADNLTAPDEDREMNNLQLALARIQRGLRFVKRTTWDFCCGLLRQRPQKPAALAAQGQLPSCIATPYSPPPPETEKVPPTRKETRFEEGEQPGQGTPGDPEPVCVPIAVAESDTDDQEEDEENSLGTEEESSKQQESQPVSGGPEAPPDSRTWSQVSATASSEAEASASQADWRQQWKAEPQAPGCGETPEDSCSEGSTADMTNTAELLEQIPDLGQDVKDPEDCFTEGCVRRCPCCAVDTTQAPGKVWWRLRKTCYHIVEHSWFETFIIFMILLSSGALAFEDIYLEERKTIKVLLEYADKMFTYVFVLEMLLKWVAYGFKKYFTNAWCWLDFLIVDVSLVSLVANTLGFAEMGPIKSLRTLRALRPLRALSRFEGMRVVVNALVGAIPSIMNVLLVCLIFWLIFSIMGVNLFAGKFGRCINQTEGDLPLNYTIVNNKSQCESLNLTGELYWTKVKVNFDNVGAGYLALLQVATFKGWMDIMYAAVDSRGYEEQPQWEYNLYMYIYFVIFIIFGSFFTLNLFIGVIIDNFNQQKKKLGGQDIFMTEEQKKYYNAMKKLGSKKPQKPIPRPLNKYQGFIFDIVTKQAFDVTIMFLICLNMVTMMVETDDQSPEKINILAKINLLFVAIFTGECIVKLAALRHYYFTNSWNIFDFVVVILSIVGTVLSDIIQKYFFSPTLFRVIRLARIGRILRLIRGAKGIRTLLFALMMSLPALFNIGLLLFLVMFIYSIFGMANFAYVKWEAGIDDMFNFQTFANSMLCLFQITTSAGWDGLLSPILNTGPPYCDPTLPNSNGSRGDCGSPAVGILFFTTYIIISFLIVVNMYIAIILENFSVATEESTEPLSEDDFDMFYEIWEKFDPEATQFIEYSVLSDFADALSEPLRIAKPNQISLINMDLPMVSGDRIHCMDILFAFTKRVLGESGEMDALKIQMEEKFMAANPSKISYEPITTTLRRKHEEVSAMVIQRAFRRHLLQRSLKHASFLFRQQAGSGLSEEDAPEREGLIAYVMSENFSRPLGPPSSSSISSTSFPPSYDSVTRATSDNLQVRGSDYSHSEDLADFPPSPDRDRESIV

Take `Cc1nc2ccc(OCC(O)Cn3nc4ccc(-c5ccc(OC(F)(F)F)cc5)cn4c3=O)cc2s1` (centres unmarked) [compound 107, 2-(2-hydroxy-3-(2-methylbenzo[d]thiazol-6-yloxy)propyl)-6-(4-(trifluoromethoxy)phenyl)-[1,2,4]triazolo[4,3-a]pyridin-3(2H)-one]: the inhibition at 1 µM came to 22.4%. As for `Cc1cccnc1CCn1nc2ccc(-c3ccc(OC(F)(F)F)cc3)cn2c1=O` [compound 61, 2-(2-(3-methylpyridin-2-yl)ethyl)-6-(4-(trifluoromethoxy)phenyl)-[1,2,4]triazolo[4,3-a]pyridin-3(2H)-one], the inhibition at 1 µM is 41.5%. Same read-out and setting: the value for `Cc1noc(C)c1Cn1nc2ccc(-c3ccc(OC(F)(F)F)cc3)cn2c1=O` [compound 6, 2-((3,5-dimethylisoxazol-4-yl)methyl)-6-(4-(trifluoromethoxy)phenyl)-[1,2,4]triazolo[4,3-a]pyridin-3(2H)-one] was 15.2%; that for `O=c1n(CCOc2nccc(OCCO)n2)nc2ccc(-c3ccc(OC(F)(F)F)cc3)cn12` [compound 156, 2-(2-(4-(2-hydroxyethoxy)pyrimidin-2-yloxy)ethyl)-6-(4-(trifluoromethoxy)phenyl)-[1,2,4]triazolo[4,3-a]pyridin-3(2H)-one] was 6.62%. On the same count and under the same terms, the value for `O=c1n(CCCc2ccc(F)c(Br)c2)nc2ccc(-c3ccc(OC(F)(F)F)cc3)cn12` [compound 64, 2-(3-(3-bromo-4-fluorophenyl)propyl)-6-(4-(trifluoromethoxy)phenyl)-[1,2,4]triazolo[4,3-a]pyridin-3(2H)-one] was 16.7%; that for `O=c1n(CCOc2nccc(C3CC3)n2)nc2ccc(-c3ccc(OC(F)(F)F)cc3)cn12` [compound 90, 2-(2-(4-cyclopropylpyrimidin-2-yloxy)ethyl)-6-(4-(trifluoromethoxy)phenyl)-[1,2,4]triazolo[4,3-a]pyridin-3(2H)-one] was 36.3%; that for `O=c1n(Cc2ccccn2)nc2ccc(-c3ccc(OC(F)(F)F)cc3)cn12` [compound 16, 2-(pyridin-2-ylmethyl)-6-(4-(trifluoromethoxy)phenyl)-[1,2,4]triazolo[4,3-a]pyridin-3(2H)-one] was 11.5%. Consider `O=c1n(Cc2noc(COc3ncccn3)n2)nc2ccc(-c3ccc(OC(F)(F)F)cc3)cn12` [compound 162, 2-((5-((pyrimidin-2-yloxy)methyl)-1,2,4-oxadiazol-3-yl)methyl)-6-(4-(trifluoromethoxy)phenyl)-[1,2,4]triazolo[4,3-a]pyridin-3(2H)-one], for which the inhibition at 1 µM is 18.5%.

With `O=c1n(CC(O)COc2ccc(Cl)cc2)nc2ccc(-c3ccc(OC(F)(F)F)cc3)cn12` (centres unmarked) [compound 38, 2-(3-(4-chlorophenoxy)-2-hydroxypropyl)-6-(4-(trifluoromethoxy)phenyl)-[1,2,4]triazolo[4,3-a]pyridin-3(2H)-one], the inhibition at 1 µM is 10.8%.

On to `COC[C@H](Cn1nc2ccc(-c3ccc(OC(F)(F)F)cc3)cn2c1=O)Oc1ncccc1C(F)(F)F` [compound 91, (S)-2-(3-methoxy-2-(3-(trifluoromethyl)pyridin-2-yloxy)propyl)-6-(4-(trifluoromethoxy)phenyl)-[1,2,4]triazolo[4,3-a]pyridin-3(2H)-one], for which the inhibition at 1 µM was found to be 58.3%. Regarding `O=c1n(CCCOc2ccccc2C(F)(F)F)nc2ccc(-c3ccc(OC(F)(F)F)cc3)cn12` [compound 71, 6-(4-(trifluoromethoxy)phenyl)-2-(3-(2-(trifluoromethyl)phenoxy)propyl)-[1,2,4]triazolo[4,3-a]pyridin-3(2H)-one], the “Late INa 1 μM (percent block of late INa)” value (compound at 1 μM) is reported as 26.0692%. As to `O=c1n(CC(COc2ccccc2Cl)Oc2ncccn2)nc2ccc(-c3ccc(OC(F)(F)F)cc3)cn12` (centres unmarked) [compound 89, 2-(3-(2-chlorophenoxy)-2-(pyrimidin-2-yloxy)propyl)-6-(4-(trifluoromethoxy)phenyl)-[1,2,4]triazolo[4,3-a]pyridin-3(2H)-one], the inhibition at 1 µM stood at 16%.

In the case of `Cc1noc(Cn2nc3ccc(-c4ccc(Cl)cc4)cn3c2=O)n1` [compound 149, 6-(4-chlorophenyl)-2-((3-methyl-1,2,4-oxadiazol-5-yl)methyl)-[1,2,4]triazolo[4,3-a]pyridin-3(2H)-one], the inhibition at 1 µM came to 26.2%. Consider `O=c1n(Cc2ccc(OC(F)(F)F)cc2)nc2ccc(-c3ccc(OC(F)(F)F)cc3)cn12` [compound 12, 2-(4-(trifluoromethoxy)benzyl)-6-(4-(trifluoromethoxy)phenyl)-[1,2,4]triazolo[4,3-a]pyridin-3(2H)-one], for which the inhibition at 1 µM came out at 11.1%. As for `O=c1n(CCCOc2ccccc2F)nc2ccc(-c3ccc(OC(F)(F)F)cc3)cn12` [compound 51, 2-(3-(2-fluorophenoxy)propyl)-6-(4-(trifluoromethoxy)phenyl)-[1,2,4]triazolo[4,3-a]pyridin-3(2H)-one], the inhibition at 1 µM is 25.6%. As for `COc1cc(Cl)c(Cl)cc1OCC(O)Cn1nc2ccc(-c3ccc(C(F)(F)F)cc3)cn2c1=O` (centres unmarked) [compound 198, 2-(3-(4,5-dichloro-2-methoxyphenoxy)-2-hydroxypropyl)-6-(4-(trifluoromethyl)phenyl)-[1,2,4]triazolo[4,3-a]pyridin-3(2H)-one], the inhibition at 1 µM was determined as 14.8%. Still for that read-out and setting: for `O=c1n(CCCOc2cccnn2)nc2ccc(-c3ccc(OC(F)(F)F)cc3)cn12` [compound 79, 2-(3-(pyridazin-3-yloxy)propyl)-6-(4-(trifluoromethoxy)phenyl)-[1,2,4]triazolo[4,3-a]pyridin-3(2H)-one] the value was 11.7%; for `Cc1nc(Cn2nc3ccc(-c4ccc(OC(F)(F)F)cc4)cn3c2=O)oc1C` [compound 22, 2-((4,5-dimethyloxazol-2-yl)methyl)-6-(4-(trifluoromethoxy)phenyl)-[1,2,4]triazolo[4,3-a]pyridin-3(2H)-one], 29.4%; for `O=c1n(CC#Cc2cnccc2Cl)nc2ccc(-c3ccc(OC(F)(F)F)cc3)cn12` [compound 68, 2-(3-(4-chloropyridin-3-yl)prop-2-ynyl)-6-(4-(trifluoromethoxy)phenyl)-[1,2,4]triazolo[4,3-a]pyridin-3(2H)-one], 11.1%.

In the case of `O=c1n(CCOc2ncc(F)cn2)nc2ccc(-c3ccc(OC(F)(F)F)cc3)cn12` [compound 138, 2-(2-(5-fluoropyrimidin-2-yloxy)ethyl)-6-(4-(trifluoromethoxy)phenyl)-[1,2,4]triazolo[4,3-a]pyridin-3(2H)-one], the inhibition at 1 µM was 32.4%. Turning to `Cc1noc(-c2ccccc2OCCn2nc3ccc(-c4ccc(OC(F)(F)F)cc4)cn3c2=O)n1` [compound 84, 2-(2-(2-(3-methyl-1,2,4-oxadiazol-5-yl)phenoxy)ethyl)-6-(4-(trifluoromethoxy)phenyl)-[1,2,4]triazolo[4,3-a]pyridin-3(2H)-one], the inhibition at 1 µM was determined as 34.3%.

Turning to `Cc1noc(Cn2nc3ccc(-c4ccc(OC(F)(F)F)cc4)c(C)n3c2=O)n1` [compound 188, 5-methyl-2-((3-methyl-1,2,4-oxadiazol-5-yl)methyl)-6-(4-(trifluoromethoxy)phenyl)-[1,2,4]triazolo[4,3-a]pyridin-3(2H)-one], the inhibition at 1 µM is 17.3%. Same read-out and setting: the value for `O=c1n(Cc2ncco2)nc2ccc(-c3ccc(OC(F)(F)F)cc3)cn12` [compound 19, 2-(oxazol-2-ylmethyl)-6-(4-(trifluoromethoxy)phenyl)-[1,2,4]triazolo[4,3-a]pyridin-3(2H)-one] was 18.1%.
